Data published in patent US11110082B2, “Tyrosine kinase inhibitors” (Rigel Pharmaceuticals, Inc., priority 2016, dated 2021).

Molecular target: T1, MerTK (Homo sapiens, UniProt Q12866)
T1 construct: Seed HUVECs (10K cells/well) in EBM-2 complete media; host or cells: HUVEC (primary human umbilical vein endothelial cells)
T1 sequence (Q12866 21-999): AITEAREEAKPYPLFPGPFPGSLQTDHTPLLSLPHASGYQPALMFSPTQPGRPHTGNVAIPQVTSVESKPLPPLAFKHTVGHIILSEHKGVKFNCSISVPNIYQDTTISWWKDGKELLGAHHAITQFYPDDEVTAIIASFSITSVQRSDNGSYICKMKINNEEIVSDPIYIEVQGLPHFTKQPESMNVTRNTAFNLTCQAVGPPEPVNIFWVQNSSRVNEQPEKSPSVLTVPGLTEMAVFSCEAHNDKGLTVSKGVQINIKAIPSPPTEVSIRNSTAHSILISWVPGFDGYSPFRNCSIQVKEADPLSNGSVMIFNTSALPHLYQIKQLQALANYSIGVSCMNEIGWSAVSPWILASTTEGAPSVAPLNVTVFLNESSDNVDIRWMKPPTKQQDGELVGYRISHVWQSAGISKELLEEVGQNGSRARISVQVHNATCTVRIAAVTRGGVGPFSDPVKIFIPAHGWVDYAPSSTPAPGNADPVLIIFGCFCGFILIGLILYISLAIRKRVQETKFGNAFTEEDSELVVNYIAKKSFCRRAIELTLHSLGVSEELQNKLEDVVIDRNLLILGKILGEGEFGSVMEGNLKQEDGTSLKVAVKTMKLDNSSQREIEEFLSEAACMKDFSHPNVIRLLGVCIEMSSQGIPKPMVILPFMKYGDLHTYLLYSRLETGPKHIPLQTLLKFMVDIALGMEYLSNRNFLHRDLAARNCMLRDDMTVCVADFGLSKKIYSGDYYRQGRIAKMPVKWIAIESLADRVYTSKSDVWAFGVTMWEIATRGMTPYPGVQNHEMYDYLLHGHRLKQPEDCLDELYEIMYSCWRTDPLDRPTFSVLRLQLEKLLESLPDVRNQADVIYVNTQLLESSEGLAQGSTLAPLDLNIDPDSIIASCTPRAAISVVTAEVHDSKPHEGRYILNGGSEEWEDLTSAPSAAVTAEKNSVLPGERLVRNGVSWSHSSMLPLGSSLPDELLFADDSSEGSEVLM
Assay: PAKT HTRF-HUVEC assay (pAkt Ser473 HTRF after anti-human MerTK-XL stimulation)
Format: cell-based
Settings: HUVEC cells, 1 hour compound, stimulated with anti-human MerTK-XL 1 ug/mL for 10 minutes, read-out: inhibition of MerTK
Description: Example 4: PAKT HTRF-HUVEC Assay Phospho Akt (Ser473) Assay kit-10,000 tests (Cisbio US, 64[…]) HUVEC cells (Lonza, CC-2519) Anti-human MerTK antibody (Clone 125518) (R&D Systems, MAB8912) Method Seed HUVECs (10K cells/well) in EBM-2 complete media (EBM-2 basal medium plus EGM-2 BulletKit supplements) overnight at 37° C., 5% CO2 in Costar 96-well white clear-bottom plates. Remove culture media and starve cells for 3-4 hours in 50 μL/well EBM-2 basal medium. Perform serial dilution of compounds in DMSO from 2.5 mM in 4-fold dilutions, and then dilute 1:125 in EBM-2 basal media. Mix 50 μL/well 2x compounds with 50 μL/well HUVECs in duplicate in Costar 96-well white clear-bottom plates. Incubate plates for 1 hour at 37° C., 5% CO2. Cross-link anti-human MerTK antibody to Biotin-SP-conjugated anti-mouse IgG antibody (1:1) to give final concentrations of 5 ug/mL of anti-human MerTK-XL. Stimulate HUVECs with 25 μL/well 5x anti-human MerTK-XL to give final concentrations of 1 ug/mL for 10 minutes at 37° C., 5% CO2. Completely remove media and lyse HUVECs with 40 uL/WELL per well of Cisbio HTRF 1× lysis buffer. Performed pAkt(Ser473) HTRF assay in ProxiPlate-384 Plus, white 384-shallow well microplate according to the vendor protocol and read plates with a SpectralMax Paradigm plate reader. Enter the HTRF values into Athena (Rigel) for curve fitting, EC50 calculation, and database storage.

Row | SMILES | EC50
1 | O=c1c2cc(CN3CC[N@+]4([O-])CC[C@@H]3CC4)ccc2c2cnc(NCC3CC3)nc2n1C1CCC(O)CC1 (relative stereo) [Compound 51, trans-4-((3-((Cyclopropylmethyl)amino)-5-(4-hydroxycyclohexyl)-6-oxo-5,6-dihydropyrimido[4,5-c]isoquinolin-8-yl)methyl)-1,4-diazabicyclo[3.2.2]nonane 1-oxide] | 11900 nM
2 | CCC(F)(F)CNc1ncc2c3ccc(CN4CCOCC4)cc3c(=O)n([C@H]3CC[C@H](O)CC3)c2n1 [Compound 1, trans-3-((2,2-Difluorobutyl)amino)-5-(4-hydroxycyclohexyl)-8-(morpholinomethyl)pyrimido [4,5-c]isoquinolin-6(5H)-one] | 247 nM
3 | CCCCNc1ncc2c3ccc(CN4CCOCC4)cc3c(=O)n([C@H]3CC[C@H](O)CC3)c2n1 [Compound 2, trans-3-(Butylamino)-5-(4-hydroxycyclohexyl)-8-(morpholinomethyl)pyrimido [4,5-c]isoquinolin-6(5H)-one] | 44.2 nM
4 | CCCCNc1ncc2c3ccc(CN4CCN(C)CC4)cc3c(=O)n([C@H]3CC[C@H](O)CC3)c2n1 [Compound 3, trans-3-(Butylamino)-5-(4-hydroxycyclohexyl)-8-((4-methylpiperazin-1-yl)methyl)pyrimido[4,5-c]isoquinolin-6(5H)-one] | 28.8 nM
5 | CCCCNc1ncc2c3ccc(CN4CCOCC4)cc3c(=O)n([C@H]3CC[C@@H](O)CC3)c2n1 [Compound 4, cis-3-(Butylamino)-5-(4-hydroxycyclohexyl)-8-(morpholinomethyl)pyrimido [4,5-c]isoquinolin-6(5H)-one] | 174 nM
6 | CCCCNc1ncc2c3ccc(CN4CCN(C)CC4)cc3c(=O)n([C@H]3CC[C@@H](O)CC3)c2n1 [Compound 5, cis-3-(Butylamino)-5-(4-hydroxycyclohexyl)-8-((4-methylpiperazin-1-yl)methyl)pyrimido[4,5-c]isoquinolin-6(5H)-one] | 98 nM
7 | CCCCNc1ncc2c3ccc(CN4CCN(C)CC4)cc3c(=O)n(CC3CCC(O)CC3)c2n1 (centres unmarked) [Compound 6, 3-(Butylamino)-5-((4-hydroxycyclohexyl)methyl)-8-((4-methylpiperazin-1-yl)methyl)pyrimido[4,5-c]isoquinolin-6(5H)-one] | 2040 nM
8 | CCCCNc1ncc2c3ccc(CN4CCOCC4)cc3c(=O)n(CC3CCC(N)CC3)c2n1 (centres unmarked) [Compound 9, 5-((4-Aminocyclohexyl)methyl)-3-(butylamino)-8-(morpholinomethyl)pyrimido [4,5-c]isoquinolin-6(5H)-one] | 116 nM
9 | CCCCNc1ncc2c3ccc(CN4CCN(C)CC4)cc3c(=O)n(CC3CCC(N)CC3)c2n1 (centres unmarked) [Compound 10, 5-((4-Aminocyclohexyl)methyl)-3-(butylamino)-8-((4-methylpiperazin-1-yl)methyl)pyrimido[4,5-c]isoquinolin-6(5H)-one] | 146 nM
10 | CN1CCN(Cc2ccc3c(c2)c(=O)n([C@H]2CC[C@H](O)CC2)c2nc(NC4CC(F)(F)C4)ncc32)CC1 [Compound 12, trans-3-((3,3-Difluorocyclobutyl)amino)-5-(4-hydroxycyclohexyl)-8-((4-methylpiperazin-1-yl)methyl)pyrimido[4,5-c]isoquinolin-6(5H)-one] | 116 nM
11 | CN1CCN(Cc2ccc3c(c2)c(=O)n([C@H]2CC[C@H](O)CC2)c2nc(NC4CC(F)C4)ncc32)CC1 (stereo partly drawn) [Compound 13, trans-3-((3-Fluorocyclobutyl)amino)-5-(4-hydroxycyclohexyl)-8-((4-methylpiperazin-1-yl)methyl)pyrimido[4,5-c]isoquinolin-6(5H)-one] | 144 nM
12 | CCCCNc1ncc2c3ccc(CN4CCN(C)CC4)cc3c(=O)n(C3CC4(CC(O)C4)C3)c2n1 (centres unmarked) [Compound 14, 3-(Butylamino)-5-(6-hydroxyspiro[3.3]heptan-2-yl)-8-((4-methylpiperazin-1-yl)methyl)pyrimido[4,5-c]isoquinolin-6(5H)-one] | 56.4 nM
13 | CCCCNc1ncc2c3ccc(CN4CCN(C)CC4)cc3c(=O)n(C3CCC(C)(O)CC3)c2n1 (stereo not drawn) [Compound 15, trans-3-(Butylamino)-5-(4-hydroxy-4-methylcyclohexyl)-8-((4-methylpiperazin-1-yl)methyl)pyrimido[4,5-c]isoquinolin-6(5H)-one] | 5.9 nM
14 | CN1CCN(Cc2ccc3c(c2)c(=O)n([C@H]2CC[C@H](O)CC2)c2nc(NCC4CC4)ncc32)CC1 [Compound 16, trans-3-((Cyclopropylmethyl)amino)-5-(4-hydroxycyclohexyl)-8-((4-methylpiperazin-1-yl)methyl)pyrimido[4,5-c]isoquinolin-6(5H)-one] | 63.9 nM
15 | CCCCNc1ncc2c3ccc(CN4CCN(C)CC4)cc3c(=O)n([C@H]3CC[C@@](C)(O)CC3)c2n1 [Compound 17, cis-3-(Butylamino)-5-(4-hydroxy-4-methylcyclohexyl)-8-((4-methylpiperazin-1-yl)methyl)pyrimido[4,5-c]isoquinolin-6(5H)-one] | 68 nM
16 | CCC1(CNc2ncc3c4ccc(CN5CCN(C)CC5)cc4c(=O)n([C@H]4CC[C@H](O)CC4)c3n2)CCC1 [Compound 18, trans-3-(((1-Ethylcyclobutyl)methyl)amino)-5-(4-hydroxycyclohexyl)-8-((4-methylpiperazin-1-yl)methyl)pyrimido[4,5-c]isoquinolin-6(5H)-one] | 277 nM
17 | CCC1(CNc2ncc3c4ccc(CN5CCOCC5)cc4c(=O)n([C@H]4CC[C@H](O)CC4)c3n2)CCC1 [Compound 19, trans-3-(((1-Ethylcyclobutyl)methyl)amino)-5-(4-hydroxycyclohexyl)-8-(morpholinomethyl)pyrimido [4,5-c]isoquinolin-6(5H)-one] | 697 nM
18 | O=c1c2cc(CN3CCOCC3)ccc2c2cnc(NCC3CCC3)nc2n1[C@H]1CC[C@H](O)CC1 [Compound 21, trans-3-((Cyclobutylmethyl)amino)-5-(4-hydroxycyclohexyl)-8-(morpholinomethyl)pyrimido [4,5-c]isoquinolin-6(5H)-one] | 30.7 nM
19 | CCC1(CNc2ncc3c4ccc(CN5CCN(C)CC5)cc4c(=O)n([C@H]4CC[C@H](O)CC4)c3n2)CC1 [Compound 22, trans-3-(((1-Ethylcyclopropyl)methyl)amino)-5-(4-hydroxycyclohexyl)-8-((4-methylpiperazin-1-yl)methyl)pyrimido[4,5-c]isoquinolin-6(5H)-one] | 589 nM
20 | CCC1(CNc2ncc3c4ccc(CN5CCOCC5)cc4c(=O)n([C@H]4CC[C@H](O)CC4)c3n2)CC1 [Compound 23] | 1180 nM
21 | CCC(F)(F)CNc1ncc2c3ccc(CN4CCN(C)CC4)cc3c(=O)n([C@H]3CC[C@H](O)CC3)c2n1 [Compound 24, trans-3-((2,2-Difluorobutyl)amino)-5-(4-hydroxycyclohexyl)-8-((4-methylpiperazin-1-yl)methyl)pyrimido[4,5-c]isoquinolin-6(5H)-one] | 221 nM
22 | CN1CCN(Cc2ccc3c(c2)c(=O)n([C@H]2CC[C@H](O)CC2)c2nc(NCCCC(F)(F)F)ncc32)CC1 [Compound 25, trans-5-(4-hydroxycyclohexyl)-8-((4-methylpiperazin-1-yl)methyl)-3-((4,4,4-trifluorobutyl)amino)pyrimido [4,5-c]isoquinolin-6(5H)-one] | 1680 nM
23 | CN1CCN(Cc2ccc3c(c2)c(=O)n([C@H]2CC[C@H](O)CC2)c2nc(NCCC4CC4)ncc32)CC1 [Compound 26, trans-3-((2-Cyclopropylethyl)amino)-5-(4-hydroxycyclohexyl)-8-((4-methylpiperazin-1-yl)methyl)pyrimido[4,5-c]isoquinolin-6(5H)-one] | 16.7 nM
